# Legend:
# [1] = test system: mice with established Type II collagen arthritis; assay: 11 day male DBA/1J mouse established Type II collagen arthritis; type: in vivo; details: for clinical symptoms of arthritis (clinical scoring in the paws) / bone loss (histologic scoring) / pannus formation (histologic scoring): mice n=16; for clinical symptoms of arthritis (clinical scoring in the paws): vs arthritic control, FIG. 2a; for bone loss (histologic scoring) / pannus formation (histologic scoring): FIG. 2b
# Experimental: Male DBA/1J mice (7-9 weeks old on arrival; at least 7 weeks old at time of first immunization) were housed 5 per cage and were acclimated for enough days after arrival such that all animals were at least 7 weeks old at start of study.
# Mice were anesthetized with Isoflurane and given intradermal collagen (2 mg/ml) injections at the base of the tail in a volume of 150 μl (D0 and D21). On days 21-35, onset of arthritis occurred and mice were randomized into treatment groups. Randomization into each group was done after swelling was obviously established in at least one paw, and attempts were made to assure approximately equal mean scores across the groups at time of enrollment. Treatment was initiated after enrollment and continued every day for a total of 10 days as outlined in Table 3. During the ten days of treatment, clinical scores were given for each of the paws (right front, left front, right rear, and left rear) according to the scoring methods provided below.
# • 0 normal • 1 1 hind or fore paw joint affected or minimal diffuse erythema and swelling • 2 2 hind or fore paw joints affected or mild diffuse erythema and swelling • 3 3 hind or fore paw joints affected or moderate diffuse erythema and swelling • 4 Marked diffuse erythema and swelling, or 4 digit joints affected • 5 Severe diffuse erythema and severe swelling entire paw, unable to flex digits
# All dose solutions were prepared to deliver 10 ml/kg (0.3 ml/30 g mouse). On day 11 of arthritis, animals were euthanized, and both fore and hind limbs with knees were removed, placed into formalin and then processed for microscopy. Following 1-2 days in fixative and then 4-5 days in decalcifier, the joints were processed, embedded, sectioned and stained with toluidine blue. (Only fore and hind paws and knees were initially processed—6 joints/mouse.)
# When scoring paws or ankles from mice with lesions of type II collagen arthritis, severity of changes as well as number of individual joints affected must be considered. When only 1-3 joints of the paws or ankles out of a possibility of numerous metacarpal/metatarsal/digit or tarsal/tibiotarsal joints were affected, an arbitrary assignment of a maximum score of 1, 2 or 3 from the scoring scale below was given depending on severity of changes. If more than 3 joints were involved, the full scoring scale below was applied only to the most severely affected/majority of joints.
# • 0 Normal • 1 Minimal infiltration of pannus in cartilage and subchondral bone • 2 Mild infiltration with marginal zone destruction of hard tissue in affected joints • 3 Moderate infiltration with moderate hard tissue destruction in affected joints • 4 Marked infiltration with marked destruction of joint architecture, most joints • 5 Severe infiltration associated with total or near total destruction of joint architecture, affects all joints
# • 0 Normal • 1 Minimal—small areas of resorption, not readily apparent on low magnification, rare osteoclasts in affected joints • 2 Mild—more numerous areas of resorption, not readily apparent on low magnification, osteoclasts more numerous in affected joints • 3 Moderate—obvious resorption of medullary trabecular and cortical bone without full thickness defects in cortex, loss of some medullary trabeculae, lesion apparent on low magnification, osteoclasts more numerous in affected joints • 4 Marked—Full thickness defects in cortical bone, often with distortion of profile of remaining cortical surface, marked loss of medullary bone, numerous osteoclasts, affects most joints • 5 Severe—Full thickness defects in cortical bone and destruction of joint architecture of all joints
# Histologic parameters (mean ±SE) for each group were analyzed for differences using the Chi Square Test and one way ANOVA. Significance was set at p≦0.05.
# [2] = test system: rats with CIA; assay: Rat collagen-induced arthritis (CIA), knee histopathology scoring; type: in vivo; details: rats n=9
# Experimental: Female Lewis rats were anesthetized with 3-5% isoflurane and arthritis was induced by intradermal injection of 0.3 mL (100 μL at three different sites) of an emulsion containing 1.5 mg/mL of type II bovine collagen, CII (Elastin Products Inc., Cat# CM276), in incomplete Freund's adjuvant (IFA) at the base of the tail on day 0 and 6. Control rats were injected with an equal amount of IFA only.
# The volume of both hind paws were measured using a water displacement plethysmometer (Ugo Basile, Biological Research Apparatus, Italy), and the onset of arthritis was indicated by increased paw volume, which appeared approximately on day 11 post injection. Both paw volumes and body weights were measured throughout the study every 2-3 days. Nineteen to twenty-one days after CII injection, the rats were euthanized with CO2. Blood was collected by cardiac puncture and serum was saved.
# Bovine Type II collagen for tissue culture was purchased from Chondrex (Cat# 2022) and was reconstituted according to the manufacturer's instructions. All data were processed and analyzed by t-test using GraphPad Prism software.
# After the animals were euthanized, both hind paws and knees were removed, hind paws were weighed, and the paws and knees were placed in formalin. Following 1-2 days in fixative and 4-5 days in decalcifier, the ankle joints were cut in half longitudinally, and the knees were cut in half in the frontal plane. The joints were then processed, embedded, sectioned and stained with toluidine blue. Collagen arthritic ankles and knees were given scores of 0-5 for inflammation, pannus formation and bone resorption according to the following criteria:
# • 0 Normal • 1 Minimal infiltration of inflammatory cells in periarticular tissue • 2 Mild infiltration • 3 Moderate infiltration with moderate edema • 4 Marked infiltration with marked edema • 5 Severe infiltration with severe edema
# • 0 Normal • 1 Minimal infiltration of pannus in cartilage and subchondral bone • 2 Mild infiltration (extends over up to ¼ of surface or subchondral area of tibia or femur) • 3 Moderate infiltration (extends over >¼ but <½ of surface or subchondral area of tibia or femur) • 4 Marked infiltration (extends over ½ to ¾ of tibial or femoral surface) • 5 Severe infiltration (covers >¾ of surface)
# • 0 Normal • 1 Minimal: minimal to mild loss of toluidine blue staining with no obvious chondrocyte loss or collagen disruption • 2 Mild: mild loss of toluidine blue staining with focal mild (superficial) chondrocyte loss and/or collagen disruption • 3 Moderate: moderate loss of toluidine blue staining with multifocal to diffuse moderate (depth to middle zone) chondrocyte loss and/or collagen disruption • 4 Marked: marked loss of toluidine blue staining with multifocal to diffuse marked (depth to deep zone) chondrocyte loss and/or collagen disruption • 5 Severe: severe diffuse loss of toluidine blue staining with multifocal severe (depth to tide mark) chondrocyte loss and/or collagen disruption on both femur and tibia
# • 0 Normal • 1 Minimal: small areas of resorption, not readily apparent on low magnification, rare osteoclasts • 2 Mild: more numerous areas of resorption, definite loss of subchondral bone involving ¼ of tibial or femoral surface (medial or lateral) • 3 Moderate: obvious resorption of subchondral bone involving >¼ but <½ of tibial or femoral surface (medial or lateral) • 4 Marked: obvious resorption of subchondral bone involving ≧½ but <¾ of tibial or femoral surface (medial or lateral) • 5 Severe: distortion of entire joint due to destruction involving >¾ of tibial or femoral surface (medial or lateral)
# [3] = 0.5 μg/kg once daily i.v., vs vehicle control
# [4] = 5.0 μg/kg once daily i.v., vs vehicle control
# [5] = 0.3 mg/kg twice daily i.v., days 8 to 19, FIG. 3
smiles,measurement,setting,value
CC[C@@H](O)/C=C/C=C\C[C@@H](O)/C=C/C=C/C=C\[C@@H](O)CCCC(=O)O [Compound X],score of bone damage (histologic scoring in joints),"[1]; mice n=15, 5 μg/kg twice daily iv, vs vehicle control, FIG. 1",significant decrease
same,clinical symptoms of arthritis (clinical scoring in the paws),[1]; 0.5 μg/kg once daily i.v.,inhibited
same,bone loss (histologic scoring),[1]; [3],reduced
same,pannus formation (histologic scoring),[1]; [3],reduced
same,clinical symptoms of arthritis (clinical scoring in the paws),[1]; 5.0 μg/kg once daily i.v.,inhibited
same,bone loss (histologic scoring),[1]; [4],reduced
same,pannus formation (histologic scoring),[1]; [4],reduced
same,bone resorption (knee histopathology scoring),[2]; [5],significant reduction
same,cartilage damage (knee histopathology scoring),[2]; [5],significant reduction
same,inflammation (knee histopathology scoring),[2]; [5],significant reduction
same,pannus (knee histopathology scoring),[2]; [5],significant reduction
same,knee histopathology scores,"[2]; therapeutic dosing, FIG. 3",significantly reduced
same,bone resorption,"[2]; therapeutic dosing, FIG. 4",protected
same,joint damage,"[2]; therapeutic dosing, FIG. 4",protected

# From patent US20080161274A1, “Compounds and methods for inhibition of bone loss” (Resolvyx Pharmaceuticals, Inc., priority 2006, published 2008)
